Here are results for two molecules from ChEMBL document CHEMBL4699467, “Progress towards a stable cephalosporin-halogenated phenazine conjugate for antibacterial prodrug applications” (Bioorg Med Chem Lett, 2020).

The subject of one data set is Staphylococcus aureus. Nature of the data set: Antibacterial activity against methicillin-resistant Staphylococcus aureus BAA-1707 assessed as inhibition of bacterial growth incubated for 16 to 18 hrs by CLSI protocol based two fold serial dilution method. The conditions noted are these: time hrs 16-18. It counts as functional.
Data set [1] in a line: Stability of the compound in methicillin-resistant Staphylococcus aureus BAA-1707 for 16 to 18 hrs. The conditions noted are these: time 16-18 hrs. The class given is ADME.

Converted amounts (≈) assume the structure as drawn.

In general, MIC refers to the least concentration at which growth counts as inhibited. Regarding `Oc1c(Br)cc(Br)c2nc3ccccc3nc12`, the MIC in the data set on Staphylococcus aureus was 1 µM (≈ 0.354 µg/mL).

Regarding `O=C(Cc1cccs1)N[C@@H]1C(=O)N2C(C(=O)OC(c3ccccc3)c3ccccc3)=C(COC(=O)Oc3c(Br)cc(Br)c4nc5ccccc5nc34)CS[C@H]12`, the Stabilty entry in data set [1] is “Stable”. In the data set on Staphylococcus aureus, the MIC was above 100 µM.
